For assay [1], the target named is T1, Steryl-sulfatase (Homo sapiens) (UniProt P08842).
T1 sequence (whole entry): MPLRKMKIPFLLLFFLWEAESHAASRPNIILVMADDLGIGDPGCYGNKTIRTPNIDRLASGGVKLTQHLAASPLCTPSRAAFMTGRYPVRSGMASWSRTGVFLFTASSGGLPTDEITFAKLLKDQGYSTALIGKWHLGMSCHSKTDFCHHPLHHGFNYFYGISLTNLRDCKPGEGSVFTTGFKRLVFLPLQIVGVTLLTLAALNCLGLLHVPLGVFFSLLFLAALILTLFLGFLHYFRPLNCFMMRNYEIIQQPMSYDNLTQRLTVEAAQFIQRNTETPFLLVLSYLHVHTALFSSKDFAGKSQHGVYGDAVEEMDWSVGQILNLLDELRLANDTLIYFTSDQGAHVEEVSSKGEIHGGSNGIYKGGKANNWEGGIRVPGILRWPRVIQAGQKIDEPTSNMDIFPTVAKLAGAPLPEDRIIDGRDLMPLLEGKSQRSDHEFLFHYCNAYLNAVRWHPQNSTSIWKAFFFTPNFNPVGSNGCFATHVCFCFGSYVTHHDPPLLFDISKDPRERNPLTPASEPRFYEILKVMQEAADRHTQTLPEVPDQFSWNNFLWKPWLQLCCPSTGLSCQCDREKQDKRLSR
The assay is described as follows: Inhibition of estrone sulfatase in MCF-7 breast cancer cells at 0.1 uM. In kind it is cell-based. To be noted: MCF7.

For assay [2], the species on record is Rattus norvegicus. The assay is described as follows: Effect on uterine weight gain in ovariectomized rat, expressed as uterine weight/total body weight X100 (0.036+/-0.001). In kind it is functional.
In assay [3] the target is T2, Steryl-sulfatase (Rattus norvegicus) (UniProt P15589).
T2 sequence (whole entry): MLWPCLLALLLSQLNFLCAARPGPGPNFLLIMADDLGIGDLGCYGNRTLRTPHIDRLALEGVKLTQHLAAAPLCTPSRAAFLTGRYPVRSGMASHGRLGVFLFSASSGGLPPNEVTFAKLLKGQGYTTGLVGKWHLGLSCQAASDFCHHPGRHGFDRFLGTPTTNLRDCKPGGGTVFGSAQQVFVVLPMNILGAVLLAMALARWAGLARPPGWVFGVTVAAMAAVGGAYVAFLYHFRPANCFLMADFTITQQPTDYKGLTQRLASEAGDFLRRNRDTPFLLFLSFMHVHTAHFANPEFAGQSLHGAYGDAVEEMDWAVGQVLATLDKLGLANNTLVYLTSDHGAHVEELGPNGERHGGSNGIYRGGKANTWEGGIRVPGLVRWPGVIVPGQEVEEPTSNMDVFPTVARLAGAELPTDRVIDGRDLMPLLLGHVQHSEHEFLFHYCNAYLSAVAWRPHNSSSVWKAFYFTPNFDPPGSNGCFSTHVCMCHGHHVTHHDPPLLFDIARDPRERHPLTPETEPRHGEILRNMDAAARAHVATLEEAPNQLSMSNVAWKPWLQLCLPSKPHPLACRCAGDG
The assay is described as follows: In vivo inhibition of estrone sulfatase in rat liver after oral administration. The assay is classed as organism-based. To be noted: concentration not given here.

Assay [4] has as its target T3, Steryl-sulfatase (Homo sapiens, UniProt P08842).
T3 sequence (P08842 whole entry): T1 sequence (whole entry)
The assay is described as follows: In vitro inhibition of estrone sulfatase in placental microsomes. More on the design: species or system Placenta.

Molecules are shown by their SMILES.

Consider `C[C@]12CC[C@@H]3c4ccc(OS(N)(=O)=O)cc4CC[C@H]3[C@@H]1CC/C2=N\O`, for which the inhibition in assay [1] and in assay [3] was 99% throughout. Besides, the Average uterine weight in assay [2] was 0.15. For the same compound, 80 nM corresponded to half-maximal inhibition in assay [4] (IC50).
For `C[C@]12CC[C@@H]3c4ccc(OS(N)(=O)=O)cc4CC[C@H]3[C@@H]1CCC2=O` [EMATE], in assay [2], the Average uterine weight stood at 0.11. Besides, the inhibition – broadly, the drop in the measured response relative to a control, in per cent – in assay [3] is 99%. Moreover, in assay [4], the IC50 (usually the concentration that inhibits the measured activity by half) worked out at 93 nM.

These data come from ChEMBL document CHEMBL1132331, “Synthesis and biological activity of the superestrogen (E)-17-oximino-3-O-sulfamoyl-1,3,5(10)-estratriene: x-ray crystal structure of (E)-17-oximino-3-hydroxy-1,3,5(10)-estratriene” (J Med Chem, 1999).
